# Assay results taken from ChEMBL document CHEMBL4270569, “Crystal structure of the Eg5 - K858 complex and implications for structure-based design of thiadiazole-containing inhibitors” (Eur J Med Chem, 2018).
# Target: T1, Kinesin-like protein KIF11 (Homo sapiens, UniProt P52732)
# T1 sequence (P52732 whole entry): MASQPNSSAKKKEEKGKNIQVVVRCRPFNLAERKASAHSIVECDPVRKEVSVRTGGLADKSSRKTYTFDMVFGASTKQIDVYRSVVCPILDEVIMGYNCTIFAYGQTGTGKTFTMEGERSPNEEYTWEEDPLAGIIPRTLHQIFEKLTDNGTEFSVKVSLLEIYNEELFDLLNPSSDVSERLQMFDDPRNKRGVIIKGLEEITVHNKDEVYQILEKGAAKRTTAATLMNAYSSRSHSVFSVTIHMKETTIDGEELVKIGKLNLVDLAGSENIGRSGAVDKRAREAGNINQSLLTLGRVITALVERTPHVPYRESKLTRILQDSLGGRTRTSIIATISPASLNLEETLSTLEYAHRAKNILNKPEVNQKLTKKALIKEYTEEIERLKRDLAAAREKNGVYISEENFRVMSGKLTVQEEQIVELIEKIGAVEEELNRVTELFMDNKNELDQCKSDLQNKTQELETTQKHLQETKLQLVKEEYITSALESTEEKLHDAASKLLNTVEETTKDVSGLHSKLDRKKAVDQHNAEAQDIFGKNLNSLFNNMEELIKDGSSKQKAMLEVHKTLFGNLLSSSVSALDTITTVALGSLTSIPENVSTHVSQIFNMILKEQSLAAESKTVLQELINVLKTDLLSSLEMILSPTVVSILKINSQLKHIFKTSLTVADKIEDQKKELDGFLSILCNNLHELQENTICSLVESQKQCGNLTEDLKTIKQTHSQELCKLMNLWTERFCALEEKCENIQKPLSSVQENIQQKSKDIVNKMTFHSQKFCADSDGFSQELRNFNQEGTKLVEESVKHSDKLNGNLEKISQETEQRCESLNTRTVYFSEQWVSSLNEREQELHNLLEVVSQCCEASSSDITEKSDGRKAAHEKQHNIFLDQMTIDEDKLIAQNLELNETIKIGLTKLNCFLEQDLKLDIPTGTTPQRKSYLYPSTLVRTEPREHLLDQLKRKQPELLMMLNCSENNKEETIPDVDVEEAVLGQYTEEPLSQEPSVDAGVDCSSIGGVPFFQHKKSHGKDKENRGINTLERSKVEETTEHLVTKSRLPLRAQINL
# Assay: Inhibition of basal ATPase activity of N-terminal His6-tagged human Eg5 motor domain (1 to 368 residues) expressed in Escherichia coli BL21 (DE3) by pyruvate kinase-lactate dehydrogenase coupled assay
row,SMILES,IC50 [nM]
1,CC(=O)NC1=NN(C(C)=O)C(C)(c2cccs2)S1 (centres undefined),1700
2,CC(=O)NC1=NN(C(C)=O)C(C)(c2cccnc2)S1 (centres undefined),8500
3,CC(=O)NC1=NN(C(C)=O)C(C)(c2ccc(Cl)s2)S1 (centres undefined),950
4,CC(=O)NC1=NN(C(C)=O)C(C)(c2ccccc2)S1 (centres undefined),740
5,CC(=O)NC1=NN(C(C)=O)C(C)(c2ccco2)S1 (centres undefined),4300
6,CC(=O)NC1=NN(C(C)=O)C(C)(c2ccc3ccccc3c2)S1 (centres undefined),15600
7,CC(=O)NC1=NN(C(C)=O)C(C)(c2ccccn2)S1 (centres undefined),37200
8,CC(=O)NC1=NN(C(C)=O)C(c2ccccc2)S1 (centres undefined),20000
9,CCC1(c2ccccc2)SC(NC(C)=O)=NN1C(C)=O (centres undefined),1460
10,CC(=O)NC1=NN(C(C)=O)C(C)(c2ccc(OC(C)=O)cc2)S1 (centres undefined),5100
11,CC(=O)NC1=NN(C(C)=O)C(C)(c2cc(F)ccc2F)S1 (centres undefined),840
12,CC(=O)NC1=NN(C(C)=O)C(c2cc(F)ccc2F)S1 (centres undefined),41100
13,CC(=O)NC1=NN(C(C)=O)C(C)(c2cccc3ccccc23)S1 (centres undefined),1900
14,CC(=O)NC1=NN(C(C)=O)[C@](C)(c2ccccc2)S1,580
15,CC(=O)NC1=NN(C(C)=O)C(C)(c2cnccn2)S1 (centres undefined),46900
16,CC(=O)NC1=NN(C(C)=O)C(C)(c2ccsc2)S1 (centres undefined),2200
17,CC(=O)NC1=NN(C(C)=O)C(C)(C2CCCCC2)S1 (centres undefined),7500
18,CC(=O)NC1=NN(C(C)=O)C(c2cccc3ccccc23)S1 (centres undefined),53900
19,CC(=O)NC1=NN(C(C)=O)C(C)(c2ccncc2)S1 (centres undefined),59900

# Target: T1, Kinesin-like protein KIF11
# Assay: Inhibition of microtubule-stimulated human Eg5 ATPase activity
row,SMILES,IC50 [nM]
1,CCNCCS(=O)(=O)NC[C@@]1(c2ccccc2)SC(NC(=O)C(C)(C)C)=NN1C(=O)C(C)(C)C [LITRONESIB],26

# Target: T1, Kinesin-like protein KIF11
# Assay: Binding affinity to N-terminal His6-tagged human Eg5 motor domain (1 to 368 residues) expressed in Escherichia coli BL21 (DE3) by isothermal titration calorimetry method
row,SMILES,Kd [nM]
1,CC(=O)NC1=NN(C(C)=O)C(C)(c2ccccc2)S1 (centres undefined),665
2,CC(=O)NC1=NN(C(C)=O)[C@](C)(c2ccccc2)S1,220

# Target: T1, Kinesin-like protein KIF11
# Assay: Inhibition of N-terminal His6-tagged microtubule-stimulated ATPase activity of human Eg5 motor domain (1 to 368 residues) expressed in Escherichia coli BL21 (DE3) by pyruvate kinase-lactate dehydrogenase coupled assay
row,SMILES,IC50 [nM]
1,CC(=O)NC1=NN(C(C)=O)C(C)(c2ccccc2)S1 (centres undefined),740
2,CC(=O)NC1=NN(C(C)=O)[C@](C)(c2ccccc2)S1,493
